{"source": "paper PMC3157426", "about": "(PLoS ONE, 2011)", "key": {"[1]": {"molecular_target": "clade 1 H5N1 virus from Vietnam N1 NA (Influenza A virus, UniProt Q6DPL2)", "format": "biochemical, avian influenza H5N1 clade 1 (Vietnam)"}, "[2]": {"molecular_target": "B/Perth/211/01 influenza B wild type NA (Influenza B virus, UniProt Q3S340)", "format": "biochemical, influenza B virus B/Perth/211/01"}, "[3]": {"molecular_target": "H1N1 pandemic influenza virus A/Swine/Shepparton/2009 NA (Influenza A virus, UniProt I6NQT4)", "experiment": "biochemical", "format": "biochemical, influenza virus A/Swine/Shepparton/2009 pandemic H1N1"}, "[4]": {"molecular_target": "A/Fukui/45/04 H3N2 wild type NA (Influenza A virus, UniProt C0IZY2)", "format": "biochemical, influenza virus A/Fukui/45/04 H3N2"}, "[5]": {"molecular_target": "clade 2 H5N1 virus from Indonesia N1 NA (Influenza A virus, UniProt Q6R2G6)", "format": "biochemical, avian influenza H5N1 clade 2 (Indonesia)"}, "[6]": {"molecular_target": "A/Mississippi/03/01 H1N1 wild type NA (Influenza A virus, UniProt Q289M4)", "format": "biochemical, influenza virus A/Mississippi/03/01 H1N1"}, "[7]": {"system": "N2 NA", "settings": "cited from earlier work"}, "[8]": {"settings": "read-out: IC50 at 10 min, 30' Pre"}, "[9]": {"settings": "read-out: IC50 at 10 min, No pre"}, "[10]": {"settings": "read-out: final IC50 after 60 min, 30' pre"}, "[11]": {"settings": "read-out: final IC50 after 60 min, No pre"}, "[12]": {"settings": "read-out: IC50 on relative slope, Rates time interval 30-40"}, "[13]": {"settings": "read-out: IC50 on relative slope, Rates time interval 40-50"}, "[14]": {"settings": "read-out: IC50 on relative slope, Rates time interval 50-60"}}, "note": "Where “and” joins values, the source holds several entries; their conditions need not be identical. Equal entries are not always repeated. Where two headings read alike, the source gives them in different places.", "data": [{"compound": "CC(=O)N[C@H]1[C@H]([C@H](O)[C@H](O)CO)OC(C(=O)O)=C[C@@H]1O", "note": "[DANA, 2-deoxy,2,3-dehydro N-acetyl neuraminic acid]", "values": [{"measurement": "binding phenotype (slow or fast binding)", "setting": "[1]", "result": "fast binding"}, {"measurement": "binding phenotype (slow or fast binding)", "setting": "[2]", "result": "fast binding"}, {"measurement": "binding phenotype (slow or fast binding)", "setting": "[3]", "result": "fast binding"}, {"measurement": "binding phenotype (slow or fast binding)", "setting": "[4]", "result": "fast binding"}, {"measurement": "binding phenotype (slow or fast binding)", "setting": "[5]", "result": "fast binding"}, {"measurement": "binding phenotype (slow or fast binding)", "setting": "[6]", "result": "fast binding"}]}, {"compound": "CCC(CC)[C@H](NC(C)=O)[C@@H]1[C@H](O)[C@@H](C(=O)O)C[C@H]1N=C(N)N", "note": "[Peramivir, peramivir]", "values": [{"measurement": "10'/60 (ratio of IC50s), No pre", "setting": "[1]", "result": 6.6}, {"measurement": "60'/10 (ratio of IC50s), 30' Pre", "setting": "[1]", "result": 1.3}, {"measurement": "No pre/pre (ratio of 60 min IC50s)", "setting": "[1]", "result": 21.0}, {"measurement": "IC50", "setting": "[1]; [8]", "result": 0.2, "unit": "nM"}, {"measurement": "IC50", "setting": "[1]; [9]", "result": 40.9, "unit": "nM"}, {"measurement": "IC50", "setting": "[1]; [10]", "result": 0.3, "unit": "nM"}, {"measurement": "IC50", "setting": "[1]; [11]", "result": 6.2, "unit": "nM"}, {"measurement": "10'/60 (ratio of IC50s), No pre", "setting": "[2]", "result": 9.3}, {"measurement": "60'/10 (ratio of IC50s), 30' Pre", "setting": "[2]", "result": 1.5}, {"measurement": "No pre/pre (ratio of 60 min IC50s)", "setting": "[2]", "result": 9.8}, {"measurement": "IC50", "setting": "[2]; [8]", "result": 1.9, "unit": "nM"}, {"measurement": "IC50", "setting": "[2]; [9]", "result": 259, "unit": "nM"}, {"measurement": "IC50", "setting": "[2]; [10]", "result": 2.8, "unit": "nM"}, {"measurement": "IC50", "setting": "[2]; [11]", "result": 27.8, "unit": "nM"}, {"measurement": "10'/60 (ratio of IC50s), No pre", "setting": "[3]", "result": 5.1}, {"measurement": "60'/10 (ratio of IC50s), 30' Pre", "setting": "[3]", "result": 1.5}, {"measurement": "No pre/pre (ratio of 60 min IC50s)", "setting": "[3]", "result": 7.1}, {"measurement": "IC50", "setting": "[3]; [8]", "result": 0.2, "unit": "nM"}, {"measurement": "IC50", "setting": "[3]; [9]", "result": 10.1, "unit": "nM"}, {"measurement": "IC50", "setting": "[3]; [10]", "result": 0.3, "unit": "nM"}, {"measurement": "IC50", "setting": "[3]; [11]", "result": 2, "unit": "nM"}, {"measurement": "10'/60 (ratio of IC50s), No pre", "setting": "[4]", "result": 8.7}, {"measurement": "60'/10 (ratio of IC50s), 30' Pre", "setting": "[4]", "result": 1.3}, {"measurement": "No pre/pre (ratio of 60 min IC50s)", "setting": "[4]", "result": 9.0}, {"measurement": "IC50", "setting": "[4]; [8]", "result": 1, "unit": "nM"}, {"measurement": "IC50", "setting": "[4]; [9]", "result": 103, "unit": "nM"}, {"measurement": "IC50", "setting": "[4]; [10]", "result": 1.3, "unit": "nM"}, {"measurement": "IC50", "setting": "[4]; [11]", "result": 11.9, "unit": "nM"}, {"measurement": "10'/60 (ratio of IC50s), No pre", "setting": "[5]", "result": 7.0}, {"measurement": "60'/10 (ratio of IC50s), 30' Pre", "setting": "[5]", "result": 1.4}, {"measurement": "No pre/pre (ratio of 60 min IC50s)", "setting": "[5]", "result": 9.3}, {"measurement": "IC50", "setting": "[5]; [8]", "result": 0.4, "unit": "nM"}, {"measurement": "IC50", "setting": "[5]; [9]", "result": 37.7, "unit": "nM"}, {"measurement": "IC50", "setting": "[5]; [10]", "result": 0.6, "unit": "nM"}, {"measurement": "IC50", "setting": "[5]; [11]", "result": 5.4, "unit": "nM"}, {"measurement": "10'/60 (ratio of IC50s), No pre", "setting": "[6]", "result": 6.5}, {"measurement": "60'/10 (ratio of IC50s), 30' Pre", "setting": "[6]", "result": 1.4}, {"measurement": "No pre/pre (ratio of 60 min IC50s)", "setting": "[6]", "result": 8.2}, {"measurement": "IC50", "setting": "[6]; [8]", "result": 0.3, "unit": "nM"}, {"measurement": "IC50", "setting": "[6]; [9]", "result": 20.2, "unit": "nM"}, {"measurement": "IC50", "setting": "[6]; [10]", "result": 0.4, "unit": "nM"}, {"measurement": "IC50", "setting": "[6]; [11]", "result": 3.1, "unit": "nM"}]}, {"compound": "CC(=O)N[C@H]1[C@H]([C@H](O)[C@H](O)CO)OC(C(=O)O)=C[C@@H]1N=C(N)N", "note": "[Zanamivir, zanamivir]", "values": [{"measurement": "IC50", "setting": "[3]; IC50 at 10 min, 30' Pre", "result": 0.5, "unit": "nM"}, {"measurement": "IC50", "setting": "[3]; IC50 at 10 min, No pre", "result": 29.5, "unit": "nM"}, {"measurement": "IC50", "setting": "[3]; final IC50 after 60 min, 30' pre", "result": 1.4, "unit": "nM"}, {"measurement": "IC50", "setting": "[3]; final IC50 after 60 min, No pre", "result": 5.8, "unit": "nM"}, {"measurement": "variation of the apparent Ki depending on the incubation conditions", "setting": "[7]", "result": "10,000 fold"}]}, {"compound": "oseltamivir carboxylate", "values": [{"measurement": "IC50", "setting": "[3]; [8]", "result": 0.5, "unit": "nM"}, {"measurement": "IC50", "setting": "[3]; [9]", "result": 15.8, "unit": "nM"}, {"measurement": "IC50", "setting": "[3]; [10]", "result": 5.1, "unit": "nM"}, {"measurement": "IC50", "setting": "[3]; [11]", "result": 6.8, "unit": "nM"}, {"measurement": "binding phenotype (slow or fast binding)", "setting": "[4]", "result": "slow binding phenotype"}, {"measurement": "IC50", "setting": "[4]; [8]", "result": 0.5, "unit": "nM"}, {"measurement": "IC50", "setting": "[4]; [9]", "result": 30.4, "unit": "nM"}, {"measurement": "IC50", "setting": "[4]; [12]", "result": "3.8 nM and 2.5 nM"}, {"measurement": "IC50", "setting": "[4]; [13]", "result": "3.8 nM and 3.3 nM"}, {"measurement": "IC50", "setting": "[4]; [14]", "result": 3.4, "unit": "nM"}, {"measurement": "IC50", "setting": "[4]; [10]", "result": 1.7, "unit": "nM"}, {"measurement": "IC50", "setting": "[4]; [11]", "result": 5.3, "unit": "nM"}, {"measurement": "IC50", "setting": "[5]; [8]", "result": 0.9, "unit": "nM"}, {"measurement": "IC50", "setting": "[5]; [9]", "result": 28.3, "unit": "nM"}, {"measurement": "IC50", "setting": "[5]; [10]", "result": 19.6, "unit": "nM"}, {"measurement": "IC50", "setting": "[5]; [11]", "result": 21.4, "unit": "nM"}, {"measurement": "IC50", "setting": "[6]; [8]", "result": 0.5, "unit": "nM"}, {"measurement": "IC50", "setting": "[6]; [9]", "result": 12.2, "unit": "nM"}, {"measurement": "IC50", "setting": "[6]; read-out: IC50 on relative slope, Rates time interval 20-30", "result": "6.2 nM and 3.9 nM"}, {"measurement": "IC50", "setting": "[6]; [12]", "result": "6.7 nM and 4.6 nM"}, {"measurement": "IC50", "setting": "[6]; [13]", "result": "6.8 nM and 5 nM"}, {"measurement": "IC50", "setting": "[6]; [14]", "result": "7.9 nM and 5.6 nM"}, {"measurement": "IC50", "setting": "[6]; [10]", "result": 3.1, "unit": "nM"}, {"measurement": "IC50", "setting": "[6]; [11]", "result": 7.3, "unit": "nM"}]}]}
